From publication PMC3198402 (PLoS ONE, 2011) come the findings set out here.

Where no end group is shown, it is not given here.

One assay addresses HLA-A*02:01 (Homo sapiens, UniProt P04439, D140Y/D185E/D98H/E176V/E277Q/G131W/G231S/I119V/I121R/I166T/I218V/L300P/L318F/N151K/N90K/P208A/P217A/Q86G/Q94H/R138H/R169H/T345S). Put plainly: biochemical. It is filed as binding.
The term Kd denotes a measure of binding affinity in units of concentration. Read a low Kd as tighter binding. The sequence ILTDGPERV [Peptide 14602] gave a dissociation constant (Kd) of 4 nM. KMDIGVPLL [Peptide 14598] displayed a dissociation constant (Kd) of 1 nM. For LLLTLLATV [Peptide 14597], the dissociation constant (Kd) worked out at 43 nM.

In turn, PLNEGIMAV [Peptide 14600] yielded a Kd of 48 nM. For SMVNGVVKL [Peptide 14605], binding was characterised by a dissociation constant (Kd) of 25 nM. For the sequence SMVNGVVRL [Peptide 14599], the affinity, expressed as Kd, was 2 nM. Still for that read-out and setting: the value for TLYAVATTV [Peptide 14606] was 1 nM. The same measure, in the same setting: to VLNPYMPTV [Peptide 14604] belongs 1 nM. Sequence YMPSVVETL [Peptide 14607] yielded an equilibrium dissociation constant (Kd) of 1 nM.

Another assay addresses HLA-A*24:03 (Homo sapiens, UniProt P04439, D101N/D140Y/D185E/E176V/F33S/G103R/G107R/I119L/I121M/I306V/K335N/L105A/L180Q/L300P/N151K/N90K/Q86E/Q94H/R106L/R138H/R89G/T104I/T345S/V100E/Y123F). Briefly: biochemical. The format is binding.
As to GFLNEDHWF [Peptide 14615], the affinity, expressed as Kd, was 34 nM. GFMNEDHWF [Peptide 14622] displayed a Kd of 17 nM.

For MALVAFLRF [Peptide 14610], the Kd was found to be 13 nM.

TYGWNIVKL [Peptide 14623] displayed a dissociation constant (Kd) of 76 nM. The sequence WYGMEIRPL [Peptide 14612] returned a Kd of 119 nM. Sequence WYMWLGARF [Peptide 14613] gave an equilibrium dissociation constant (Kd) of 19 nM.
